Results from ChEMBL document CHEMBL1201862, “PubChem BioAssay data set” (2004).
Active and inactive are the calls of the source.

Legend:
Phospholipase A2 = Phospholipase A2 (Homo sapiens, UniProt P04054); type: functional;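 also: confirmatory dose-response counterscreen on phospholipase A2, testing hits that came from an ultra-high-throughput screen for ATG4B inhibitors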
Cysteine protease ATG4B = molecular target: T1, Cysteine protease ATG4B (Homo sapiens, UniProt Q9Y4P1); type: functional;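 also: Fluorescence-based dose-response confirmation assay measuring inhibition of ATG4B activity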
T1 sequence (Q9Y4P1 whole entry): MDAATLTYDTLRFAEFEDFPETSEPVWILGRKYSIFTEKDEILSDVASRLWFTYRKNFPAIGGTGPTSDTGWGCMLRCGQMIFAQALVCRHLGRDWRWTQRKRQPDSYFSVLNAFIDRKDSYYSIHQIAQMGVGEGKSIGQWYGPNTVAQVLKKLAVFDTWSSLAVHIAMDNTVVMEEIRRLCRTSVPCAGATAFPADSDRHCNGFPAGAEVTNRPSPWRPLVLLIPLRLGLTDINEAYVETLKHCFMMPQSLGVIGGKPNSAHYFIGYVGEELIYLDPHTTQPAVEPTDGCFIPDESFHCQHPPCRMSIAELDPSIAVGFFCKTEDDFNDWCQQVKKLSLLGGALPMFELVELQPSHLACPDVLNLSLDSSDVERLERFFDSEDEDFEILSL

[1] = molecular target: T2, Sentrin-specific protease 6 (Homo sapiens, UniProt Q9GZR1); assay: SAR Analysis of small molecule inhibitors of Sentrin-specific protease 6 (SENP6) using a Luminescent assay. [Related pubchem assays (depositor defined):AID2582, AID2599]; type: functional
T2 sequence (Q9GZR1 whole entry): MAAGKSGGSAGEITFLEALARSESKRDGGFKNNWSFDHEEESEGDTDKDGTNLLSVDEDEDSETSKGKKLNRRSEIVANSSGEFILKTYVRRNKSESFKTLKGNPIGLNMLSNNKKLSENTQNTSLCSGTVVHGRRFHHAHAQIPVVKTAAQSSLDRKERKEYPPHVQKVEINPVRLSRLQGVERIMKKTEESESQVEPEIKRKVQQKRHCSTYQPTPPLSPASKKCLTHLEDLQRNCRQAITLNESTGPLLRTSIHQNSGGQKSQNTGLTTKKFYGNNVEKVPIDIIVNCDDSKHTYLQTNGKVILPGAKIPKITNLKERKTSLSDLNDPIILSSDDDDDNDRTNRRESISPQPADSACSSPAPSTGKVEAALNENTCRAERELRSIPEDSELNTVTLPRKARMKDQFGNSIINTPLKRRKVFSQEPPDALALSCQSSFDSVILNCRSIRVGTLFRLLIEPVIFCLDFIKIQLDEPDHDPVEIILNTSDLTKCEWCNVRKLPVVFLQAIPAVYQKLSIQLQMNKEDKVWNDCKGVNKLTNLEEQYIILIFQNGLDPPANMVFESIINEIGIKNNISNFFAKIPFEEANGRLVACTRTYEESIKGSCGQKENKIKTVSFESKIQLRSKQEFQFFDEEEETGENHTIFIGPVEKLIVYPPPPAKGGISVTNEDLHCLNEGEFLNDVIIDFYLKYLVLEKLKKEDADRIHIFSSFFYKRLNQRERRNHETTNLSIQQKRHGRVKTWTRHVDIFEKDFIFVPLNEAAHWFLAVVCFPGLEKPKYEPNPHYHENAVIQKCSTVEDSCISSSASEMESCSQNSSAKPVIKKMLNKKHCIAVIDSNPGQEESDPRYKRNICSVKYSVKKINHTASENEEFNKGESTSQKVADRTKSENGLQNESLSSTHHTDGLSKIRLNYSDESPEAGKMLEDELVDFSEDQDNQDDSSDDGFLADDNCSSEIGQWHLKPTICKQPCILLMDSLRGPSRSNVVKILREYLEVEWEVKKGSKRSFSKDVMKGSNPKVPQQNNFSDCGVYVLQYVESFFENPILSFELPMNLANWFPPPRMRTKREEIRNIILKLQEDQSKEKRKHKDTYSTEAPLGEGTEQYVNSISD

[2] = molecular target: T3, Sentrin-specific protease 7 (Homo sapiens, UniProt Q9BQF6); assay: SENP7 protease inhibitors, SAR follow-up, biochemical, luminescence (AID 504497); type: functional
T3 sequence (Q9BQF6 whole entry): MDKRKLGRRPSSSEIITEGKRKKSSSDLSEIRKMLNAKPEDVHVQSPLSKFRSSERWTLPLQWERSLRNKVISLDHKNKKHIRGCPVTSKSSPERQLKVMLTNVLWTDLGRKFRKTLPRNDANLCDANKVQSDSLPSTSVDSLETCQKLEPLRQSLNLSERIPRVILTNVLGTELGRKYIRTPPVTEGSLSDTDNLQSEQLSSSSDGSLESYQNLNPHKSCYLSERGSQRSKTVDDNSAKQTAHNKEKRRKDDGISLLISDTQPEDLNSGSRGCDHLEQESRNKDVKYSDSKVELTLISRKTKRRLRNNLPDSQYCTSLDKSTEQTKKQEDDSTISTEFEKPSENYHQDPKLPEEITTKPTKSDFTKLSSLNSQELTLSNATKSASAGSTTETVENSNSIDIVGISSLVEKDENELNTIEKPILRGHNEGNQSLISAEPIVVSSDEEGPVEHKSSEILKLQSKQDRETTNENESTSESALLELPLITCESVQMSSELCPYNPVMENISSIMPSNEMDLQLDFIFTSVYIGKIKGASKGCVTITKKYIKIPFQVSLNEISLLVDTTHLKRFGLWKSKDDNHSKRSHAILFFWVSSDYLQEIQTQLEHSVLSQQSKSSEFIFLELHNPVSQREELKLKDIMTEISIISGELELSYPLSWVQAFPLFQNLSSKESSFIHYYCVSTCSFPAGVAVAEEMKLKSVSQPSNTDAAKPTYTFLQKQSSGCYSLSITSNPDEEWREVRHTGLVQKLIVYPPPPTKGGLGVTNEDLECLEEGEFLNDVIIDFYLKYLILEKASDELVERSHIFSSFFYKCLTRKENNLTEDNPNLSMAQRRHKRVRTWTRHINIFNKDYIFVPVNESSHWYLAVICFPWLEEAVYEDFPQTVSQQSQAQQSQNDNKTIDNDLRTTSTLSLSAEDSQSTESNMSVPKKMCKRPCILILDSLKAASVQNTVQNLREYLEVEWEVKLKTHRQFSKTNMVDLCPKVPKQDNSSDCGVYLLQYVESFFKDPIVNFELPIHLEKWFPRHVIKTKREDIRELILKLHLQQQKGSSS

[3] = molecular target: T4, Sentrin-specific protease 8 (Homo sapiens, UniProt Q96LD8); assay: SENP8 protease inhibitors, SAR follow-up, biochemical, luminescence (AID 504501); type: functional
T4 sequence (Q96LD8 whole entry): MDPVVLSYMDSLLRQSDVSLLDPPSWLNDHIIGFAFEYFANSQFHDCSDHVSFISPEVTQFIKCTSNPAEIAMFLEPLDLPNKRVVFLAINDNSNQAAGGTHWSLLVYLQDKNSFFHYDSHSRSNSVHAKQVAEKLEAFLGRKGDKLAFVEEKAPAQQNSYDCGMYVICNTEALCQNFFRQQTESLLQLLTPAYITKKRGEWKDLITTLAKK

Caspase-3 = molecular target: T5, Caspase-3 (Homo sapiens, UniProt P42574); assay: SAR Analysis of small molecule inhibitors of Sentrin-specific proteases (SENPs) using a Caspase-3 Selectivity assay. [Related pubchem assays (depositor defined):AID2540, AID2599, AID434973, AID489001]; type: functional
T5 sequence (P42574 whole entry): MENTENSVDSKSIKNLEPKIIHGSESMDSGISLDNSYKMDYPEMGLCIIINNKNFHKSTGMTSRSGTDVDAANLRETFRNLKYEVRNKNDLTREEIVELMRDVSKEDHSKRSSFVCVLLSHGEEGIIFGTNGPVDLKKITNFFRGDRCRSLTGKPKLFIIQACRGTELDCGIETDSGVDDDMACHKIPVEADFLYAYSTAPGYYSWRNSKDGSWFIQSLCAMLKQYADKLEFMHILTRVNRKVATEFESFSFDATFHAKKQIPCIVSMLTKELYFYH

[4] = molecular target: T6, Orexin/Hypocretin receptor type 1 (Homo sapiens, UniProt O43613); assay: Homogeneous Time Resolved Fluorescence (HTRF)-based cell-based high throughput dose response assay for antagonists of the orexin 1 receptor (OX1R; HCRTR1). [Related pubchem assays (depositor defined):AID434989, AID435008, AID463079, AID485270, AID492963, AID492964, AID492965, AID493232, AID504717, AID504718]; type: functional
T6 sequence (O43613 whole entry): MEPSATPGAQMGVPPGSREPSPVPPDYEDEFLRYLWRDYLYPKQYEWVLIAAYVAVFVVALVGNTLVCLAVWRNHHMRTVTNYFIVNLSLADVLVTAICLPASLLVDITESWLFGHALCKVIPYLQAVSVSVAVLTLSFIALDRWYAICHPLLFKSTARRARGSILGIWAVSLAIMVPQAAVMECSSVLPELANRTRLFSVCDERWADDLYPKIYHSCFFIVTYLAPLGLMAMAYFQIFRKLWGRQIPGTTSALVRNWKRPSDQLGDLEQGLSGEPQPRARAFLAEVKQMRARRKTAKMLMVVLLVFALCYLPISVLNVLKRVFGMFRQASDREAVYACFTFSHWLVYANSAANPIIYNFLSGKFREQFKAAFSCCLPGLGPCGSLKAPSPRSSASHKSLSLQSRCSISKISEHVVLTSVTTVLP

[5] = molecular target: T6, Orexin/Hypocretin receptor type 1; assay: Fluorescence-based cell-based high throughput dose response assay for antagonists of the orexin 1 receptor (OX1R; HCRTR1). [Related pubchem assays (depositor defined):AID434989, AID435008, AID463079, AID485270, AID492963, AID492964, AID492965, AID493232, AID504717, AID504718]; type: functional
Orexin receptor type 2 [6] = molecular target: T7, Orexin receptor type 2 (Homo sapiens, UniProt O43614); assay: Counterscreen assay for antagonists of the orexin 1 receptor (OX1R; HCRTR1): Fluorescence-based cell-based dose response assay for antagonists of the orexin 2 receptor (OX2R; HCRTR2), run by assay provider.; type: functional
T7 sequence (O43614 whole entry): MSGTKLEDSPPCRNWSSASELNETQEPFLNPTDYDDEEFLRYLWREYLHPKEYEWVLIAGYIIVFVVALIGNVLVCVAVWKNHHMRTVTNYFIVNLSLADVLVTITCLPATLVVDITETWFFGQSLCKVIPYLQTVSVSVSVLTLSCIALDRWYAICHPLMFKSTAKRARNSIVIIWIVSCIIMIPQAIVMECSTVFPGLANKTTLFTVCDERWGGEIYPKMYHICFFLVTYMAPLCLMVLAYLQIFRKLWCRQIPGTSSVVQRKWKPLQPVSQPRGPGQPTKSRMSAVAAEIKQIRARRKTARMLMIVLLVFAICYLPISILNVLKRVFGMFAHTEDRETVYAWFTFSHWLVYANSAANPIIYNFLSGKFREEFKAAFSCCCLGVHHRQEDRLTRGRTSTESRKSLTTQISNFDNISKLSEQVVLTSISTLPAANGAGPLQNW

Orexin receptor type 2 [7] = molecular target: T7, Orexin receptor type 2; assay: Counterscreen assay for antagonists of the orexin 1 receptor (OX1R; HCRTR1): Homogeneous Time Resolved Fluorescence (HTRF)-based cell-based dose response assay for antagonists of the orexin 2 receptor (OX2R; HCRTR2), run by assay provider.; type: functional
[8] = (§1) Counterscreen for antagonists of the orexin 1 receptor (OX1R; HCRTR1): Fluorescence-based cell-based high throughput dose response assay to identify antagonists of the parental CHO cell line. [Related pubchem assays (depositor defined):AID434989, AID435008, AID463079, AID485270, AID492963, AID492964, AID492965, AID493232, AID504699, AID504701]; type: functional
CHO-K1 = assay: as §1, with “Homogeneous time resolved fluorescence (HTRF)-based” for “Fluorescence-based”, “cell-based” for “cell-based high throughput”, “CHO-K1” for “CHO”; type: functional; settings: Cricetulus griseus
[9] = molecular target: Peroxisome proliferator-activated receptor gamma/Nuclear receptor coactivator 2 (Homo sapiens, UniProt P37231); assay: (§2) TR-FRET dose response biochemical High Throughput Screening assay for agonists of the steroid receptor coactivator 2 (SRC-2) recruitment by the peroxisome proliferator-activated receptor gamma (PPAR gamma): non-selective agonists. [Related pubchem assays: 1297, 1032 ]; type: functional
Vero = assay: cells; type: functional, cell-based; settings: Chlorocebus sabaeus
[10] = inhibitors of firefly luciferase expression or activity, dose response, H4 neuroglioma cells, luminescence (AID 1990); type: functional, cell-based
[11] = Luminescence Cell-Based Dose Response HTS to Identify Inhibitors of 5'UTR Stem-Loop Driven Prion Protein mRNA Translation in H4 Neuroglioblastoma Cells. [Related pubchem assays: 1827 (Project Summary), 1813 (Primary HTS)]; type: functional
[12] = molecular target: Peroxisome proliferator-activated receptor gamma/Nuclear receptor coactivator 3 (Homo sapiens, UniProt P37231); assay: as §2, with “3 (SRC-3)” for “2 (SRC-2)”, “1301 (Confirmation screen.), 1048 (Primary screen.)]” for “1297, 1032 ]”; type: functional
[13] = molecular target: Peroxisome proliferator-activated receptor gamma/Nuclear receptor coactivator 1 (Homo sapiens, UniProt P37231); assay: as §2, with “1 (SRC-1)” for “2 (SRC-2)”, “assays (depositor defined):AID1300, AID1808, AID504735, AID631]” for “assays: 1297, 1032 ]”; type: protein assay
[14] = inhibitors of SNCA 5'UTR-driven reporter translation, confirmation, H4 neuroglioma cells, luminescence (AID 1988); type: functional, cell-based

Peroxisome proliferator-activated receptor gamma/Nuclear receptor coactivator 2, sequence (P37231 whole entry): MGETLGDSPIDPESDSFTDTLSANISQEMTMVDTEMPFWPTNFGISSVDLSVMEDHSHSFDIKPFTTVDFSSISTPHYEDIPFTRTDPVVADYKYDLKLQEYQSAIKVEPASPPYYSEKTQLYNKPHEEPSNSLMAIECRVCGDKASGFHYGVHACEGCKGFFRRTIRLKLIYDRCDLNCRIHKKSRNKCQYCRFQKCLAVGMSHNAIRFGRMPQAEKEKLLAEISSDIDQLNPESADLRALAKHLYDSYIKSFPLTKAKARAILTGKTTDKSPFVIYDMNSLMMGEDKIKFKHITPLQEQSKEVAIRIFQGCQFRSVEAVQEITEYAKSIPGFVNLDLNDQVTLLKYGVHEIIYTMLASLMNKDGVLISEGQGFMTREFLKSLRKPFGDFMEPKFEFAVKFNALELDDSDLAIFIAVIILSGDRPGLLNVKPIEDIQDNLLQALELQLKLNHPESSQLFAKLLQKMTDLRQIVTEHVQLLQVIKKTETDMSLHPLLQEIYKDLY
Peroxisome proliferator-activated receptor gamma/Nuclear receptor coactivator 2, sequence (Q15596 whole entry, further chain): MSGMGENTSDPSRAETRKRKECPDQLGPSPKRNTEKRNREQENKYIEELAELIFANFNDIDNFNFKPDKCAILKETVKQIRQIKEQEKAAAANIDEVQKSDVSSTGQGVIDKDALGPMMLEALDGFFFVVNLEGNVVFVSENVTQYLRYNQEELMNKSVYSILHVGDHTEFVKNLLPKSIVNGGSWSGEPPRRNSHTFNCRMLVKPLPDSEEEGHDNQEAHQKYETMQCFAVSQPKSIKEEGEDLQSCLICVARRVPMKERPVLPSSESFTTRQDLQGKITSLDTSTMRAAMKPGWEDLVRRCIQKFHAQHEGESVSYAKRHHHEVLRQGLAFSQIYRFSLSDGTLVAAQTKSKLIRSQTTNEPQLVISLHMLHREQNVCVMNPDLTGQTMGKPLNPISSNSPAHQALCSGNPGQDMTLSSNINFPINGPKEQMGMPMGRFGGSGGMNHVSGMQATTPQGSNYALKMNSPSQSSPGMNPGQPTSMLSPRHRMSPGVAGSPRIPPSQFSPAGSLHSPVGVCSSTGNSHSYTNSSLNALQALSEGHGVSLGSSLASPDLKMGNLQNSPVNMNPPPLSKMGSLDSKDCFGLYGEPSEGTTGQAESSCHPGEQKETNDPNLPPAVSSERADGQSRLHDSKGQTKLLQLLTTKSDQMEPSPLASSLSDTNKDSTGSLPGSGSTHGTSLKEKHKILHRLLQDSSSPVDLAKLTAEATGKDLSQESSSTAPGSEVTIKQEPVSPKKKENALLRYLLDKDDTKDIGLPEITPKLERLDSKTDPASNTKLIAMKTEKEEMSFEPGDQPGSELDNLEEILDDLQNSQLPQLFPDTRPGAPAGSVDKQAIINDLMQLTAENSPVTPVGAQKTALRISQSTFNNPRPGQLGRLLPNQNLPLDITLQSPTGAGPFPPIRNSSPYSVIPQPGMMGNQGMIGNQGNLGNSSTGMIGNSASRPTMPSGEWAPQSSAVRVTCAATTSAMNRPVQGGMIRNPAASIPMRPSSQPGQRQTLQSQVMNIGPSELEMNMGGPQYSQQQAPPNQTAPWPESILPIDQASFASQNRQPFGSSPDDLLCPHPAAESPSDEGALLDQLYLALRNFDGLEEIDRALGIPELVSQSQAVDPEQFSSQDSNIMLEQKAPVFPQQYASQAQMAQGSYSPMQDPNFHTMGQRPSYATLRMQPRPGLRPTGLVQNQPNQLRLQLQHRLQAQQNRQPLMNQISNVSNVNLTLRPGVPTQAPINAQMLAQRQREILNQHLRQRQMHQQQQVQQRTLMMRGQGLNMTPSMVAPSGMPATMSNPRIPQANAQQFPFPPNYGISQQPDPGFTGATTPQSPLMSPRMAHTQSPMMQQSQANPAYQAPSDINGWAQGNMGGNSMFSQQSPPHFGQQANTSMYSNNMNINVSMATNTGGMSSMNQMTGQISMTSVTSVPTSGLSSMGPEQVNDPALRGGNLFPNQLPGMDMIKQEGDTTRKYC
Peroxisome proliferator-activated receptor gamma/Nuclear receptor coactivator 3, sequence (P37231 whole entry): as the sequence (P37231 whole entry) above
Peroxisome proliferator-activated receptor gamma/Nuclear receptor coactivator 3, sequence (Q9Y6Q9 whole entry, further chain): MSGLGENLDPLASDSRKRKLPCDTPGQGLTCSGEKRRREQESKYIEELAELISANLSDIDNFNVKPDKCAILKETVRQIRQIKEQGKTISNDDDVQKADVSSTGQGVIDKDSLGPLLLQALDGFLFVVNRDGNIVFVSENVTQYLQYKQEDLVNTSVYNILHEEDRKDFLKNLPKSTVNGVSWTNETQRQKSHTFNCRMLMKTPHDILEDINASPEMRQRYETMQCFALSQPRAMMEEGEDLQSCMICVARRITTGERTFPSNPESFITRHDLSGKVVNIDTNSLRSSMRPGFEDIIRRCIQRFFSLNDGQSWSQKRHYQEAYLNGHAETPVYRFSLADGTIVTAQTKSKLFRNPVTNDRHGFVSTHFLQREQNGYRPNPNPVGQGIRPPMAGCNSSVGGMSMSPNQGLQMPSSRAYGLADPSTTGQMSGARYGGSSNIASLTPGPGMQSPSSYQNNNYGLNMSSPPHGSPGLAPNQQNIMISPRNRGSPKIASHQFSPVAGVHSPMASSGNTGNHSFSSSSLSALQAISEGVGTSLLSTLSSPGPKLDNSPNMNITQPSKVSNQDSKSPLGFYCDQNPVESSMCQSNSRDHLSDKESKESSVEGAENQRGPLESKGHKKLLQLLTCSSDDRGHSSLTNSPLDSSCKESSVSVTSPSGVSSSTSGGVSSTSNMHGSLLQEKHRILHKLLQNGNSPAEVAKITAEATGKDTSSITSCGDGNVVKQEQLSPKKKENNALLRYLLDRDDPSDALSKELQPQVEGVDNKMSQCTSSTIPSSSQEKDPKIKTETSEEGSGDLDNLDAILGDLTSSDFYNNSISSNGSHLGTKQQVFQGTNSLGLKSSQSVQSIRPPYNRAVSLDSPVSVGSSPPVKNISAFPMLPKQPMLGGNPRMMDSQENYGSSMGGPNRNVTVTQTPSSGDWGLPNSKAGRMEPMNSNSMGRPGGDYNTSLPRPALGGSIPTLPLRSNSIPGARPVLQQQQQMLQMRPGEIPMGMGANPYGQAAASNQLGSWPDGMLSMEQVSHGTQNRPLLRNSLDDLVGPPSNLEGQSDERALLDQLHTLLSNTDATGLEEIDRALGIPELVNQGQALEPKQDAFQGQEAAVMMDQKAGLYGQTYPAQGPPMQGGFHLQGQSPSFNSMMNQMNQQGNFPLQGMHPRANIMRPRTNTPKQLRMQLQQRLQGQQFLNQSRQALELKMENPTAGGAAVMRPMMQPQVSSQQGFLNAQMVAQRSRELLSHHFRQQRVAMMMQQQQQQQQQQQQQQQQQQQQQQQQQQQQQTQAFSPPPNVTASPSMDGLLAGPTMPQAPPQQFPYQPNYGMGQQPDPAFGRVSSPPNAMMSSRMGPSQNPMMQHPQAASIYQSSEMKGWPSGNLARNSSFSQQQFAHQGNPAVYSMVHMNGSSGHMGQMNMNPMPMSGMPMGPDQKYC
Phospholipase A2, sequence (P04054 whole entry): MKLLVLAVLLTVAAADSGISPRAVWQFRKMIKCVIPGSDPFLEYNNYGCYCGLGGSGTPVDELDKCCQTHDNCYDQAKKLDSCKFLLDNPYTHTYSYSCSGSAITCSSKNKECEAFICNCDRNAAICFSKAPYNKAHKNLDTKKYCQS

## CC1CCc2sc(C(=O)N3CCC(C(N)=O)CC3)cc2C1 (configuration not stated)
Phospholipase A2
  IC50: 9.91 µM (active)
Cysteine protease ATG4B
  IC50: 13.2 µM (active)

## NC(=O)c1ccc(NC(=O)c2ccc3c(c2)OCO3)cc1
[1]
  IC50: > 99 µM (inactive)
[2]
  IC50: 12.9 µM (active)
[3]
  IC50: > 99 µM (inactive)
Caspase-3
  IC50: 7.08 µM (active)

## c1ccc(CN2CCN(C3CCCSc4ccccc43)CC2)cc1 (configuration not stated)
[4]
  IC50: 1.59 µM (active)
[5]
  IC50: 23.9 µM (inactive)
Orexin receptor type 2 [6]
  IC50: > 88.8 µM (inactive)
Orexin receptor type 2 [7]
  IC50: > 50 µM (inactive)
[8]
  IC50: > 49.8 µM (inactive)
CHO-K1
  IC50: > 66.2 µM (inactive)

## Brc1ccc(-c2nc(/C=C/c3ccccc3)no2)cc1
[1]
  IC50: > 99 µM (inactive)
[2]
  IC50: > 99 µM (inactive)
[3]
  IC50: > 99 µM (inactive)
Caspase-3
  IC50: > 99 µM (inactive)

## COC(=O)c1ccccc1NC1=C/C(=N/S(=O)(=O)c2cccs2)c2ccccc2C1=O
[1]
  IC50: 2.15 µM (active)
[2]
  IC50: 2.42 µM (active)
[3]
  IC50: 4.02 µM (active)
Caspase-3
  IC50: 24.5 µM (active)

## Cc1ccccc1-c1nnc(S)n1/N=C/c1ccc(-c2ccccc2Br)o1
[9]
  EC50: 28.6 µM (not active)
Vero
  IC50: 2.91 µM (active)
[10]
  EC50: 18.7 µM (active)
[11]
  EC50: 13.9 µM (active)
[12]
  EC50: > 79.4 µM (not active)
[13]
  EC50: 29.4 µM (inactive)
[14]
  EC50: 11.7 µM (active)
